#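 Tested at 5 concentrations; 48 h exposure; 96-well plates; endpoints linearly interpolated, else capped at highest concentration. GI50 is the concentration that inhibits growth by half. Definition used: TGI = concentration required for complete inhibition of growth.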
# Columns and labels:
# Assay in all cases: DTP human tumour cell line panel, 48 h
# [1] = tested on: 786-0 renal
# [2] = tested on: A498 renal
# [3] = tested on: A549 NSCLC
# [4] = tested on: ACHN renal
# [5] = tested on: BT-549 breast
# [6] = tested on: CAKI-1 renal
# [7] = tested on: DU-145 prostate
# [8] = tested on: EKVX NSCLC
# [9] = tested on: HCC-2998 colon
# [10] = tested on: HCT-116 colon
# [11] = tested on: HCT-15 colon
# [12] = tested on: HL-60(TB) leukemia
# [13] = tested on: HOP-62 NSCLC
# [14] = tested on: HOP-92 NSCLC
# [15] = tested on: HT29 colon
# [16] = tested on: IGROV1 ovarian
# [17] = tested on: KM12 colon
# [18] = tested on: LOX IMVI melanoma
# [19] = tested on: M14 melanoma
# [20] = tested on: MALME-3M melanoma
# [21] = tested on: MCF7 breast
# [22] = tested on: MDA-MB-231 breast
# [23] = tested on: MDA-MB-435
# [24] = tested on: MOLT-4 leukemia
# [25] = tested on: NCI-H226 lung
# [26] = tested on: NCI-H460 lung
# [27] = tested on: NCI-H522 lung
# [28] = tested on: NCI/ADR-RES ovarian
# [29] = tested on: OVCAR-3 ovarian
# [30] = tested on: OVCAR-4 ovarian
# [31] = tested on: OVCAR-5 ovarian
# [32] = tested on: OVCAR-8 ovarian
# [33] = tested on: SF-295 CNS
# [34] = tested on: SF-539 CNS
# [35] = tested on: SK-MEL-2 melanoma
# [36] = tested on: SK-MEL-28 melanoma
# [37] = tested on: SK-MEL-5 melanoma
# [38] = tested on: SK-OV-3 ovarian
# [39] = tested on: SN12C renal
# [40] = tested on: SNB-19 CNS
# [41] = tested on: SNB-75 CNS
# [42] = tested on: SR leukemia
# [43] = tested on: SW-620 colon
# [44] = tested on: T-47D breast
# [45] = tested on: TK-10 renal
# [46] = tested on: U251 CNS
# [47] = tested on: UACC-257 melanoma
# [48] = tested on: UACC-62 melanoma
# [49] = tested on: UO-31 renal
# [50] = tested on: CCRF-CEM leukemia
# [51] = tested on: COLO 205 colon
# [52] = tested on: HS 578T breast
# [53] = tested on: K-562 leukemia
# [54] = tested on: NCI-H23 lung
# [55] = tested on: PC-3 prostate
# [56] = tested on: RPMI-8226 leukemia
# [57] = tested on: RXF 393 renal
# [58] = tested on: SF-268 CNS
compound,measurement,setting,value
O=C(O)CCCCCNCc1cc2cc3c(cc2c2cc(OCc4ccccc4)ccc12)OCO3,GI50,[1],1680 nM
same,TGI,[1],3.25 µM
same,GI50,[2],3170 nM
same,TGI,[2],13.2 µM
same,GI50,[3],1550 nM
same,TGI,[3],3.17 µM
same,GI50,[4],3480 nM
same,TGI,[4],13.2 µM
same,GI50,[5],6.68 µM
same,TGI,[5],24.1 µM
same,GI50,[6],3.17 µM
same,TGI,[6],12 µM
same,GI50,[7],2370 nM
same,TGI,[7],5470 nM
same,GI50,[8],4010 nM
same,TGI,[8],17.9 µM
same,GI50,[9],1710 nM
same,TGI,[9],3.37 µM
same,GI50,[10],1580 nM
same,TGI,[10],3.48 µM
same,GI50,[11],2030 nM
same,TGI,[11],5.88 µM
same,GI50,[12],2320 nM
same,TGI,[12],6.85 µM
same,GI50,[13],2000 nM
same,TGI,[13],5.25 µM
same,GI50,[14],1380 nM
same,TGI,[14],2.98 µM
same,GI50,[15],1730 nM
same,TGI,[15],3.53 µM
same,GI50,[16],2960 nM
same,TGI,[16],10.1 µM
same,GI50,[17],1630 nM
same,TGI,[17],3.19 µM
same,GI50,[18],1620 nM
same,TGI,[18],3.1 µM
same,GI50,[19],1900 nM
same,TGI,[19],3.51 µM
same,GI50,[20],1.88 µM
same,TGI,[20],3.57 µM
same,GI50,[21],1680 nM
same,TGI,[21],3.21 µM
same,GI50,[22],1880 nM
same,TGI,[22],3.88 µM
same,GI50,[23],1780 nM
same,TGI,[23],3.3 µM
same,GI50,[24],2230 nM
same,TGI,[24],24.2 µM
same,GI50,[25],4.37 µM
same,TGI,[25],21.9 µM
same,GI50,[26],1700 nM
same,TGI,[26],3.33 µM
same,GI50,[27],1760 nM
same,TGI,[27],3450 nM
same,GI50,[28],2880 nM
same,TGI,[28],11.1 µM
same,GI50,[29],2110 nM
same,TGI,[29],5060 nM
same,GI50,[30],3260 nM
same,TGI,[30],12.6 µM
same,GI50,[31],2330 nM
same,TGI,[31],5.23 µM
same,GI50,[32],1610 nM
same,TGI,[32],3.21 µM
same,GI50,[33],1840 nM
same,TGI,[33],3.61 µM
same,GI50,[34],1900 nM
same,TGI,[34],3.62 µM
same,GI50,[35],2220 nM
same,TGI,[35],4.6 µM
same,GI50,[36],1.78 µM
same,TGI,[36],3.33 µM
same,GI50,[37],1650 nM
same,TGI,[37],3300 nM
same,GI50,[38],5110 nM
same,TGI,[38],19.9 µM
same,GI50,[39],5420 nM
same,TGI,[39],19.8 µM
same,GI50,[40],4050 nM
same,TGI,[40],20.7 µM
same,GI50,[41],2960 nM
same,TGI,[41],8.81 µM
same,GI50,[42],1700 nM
same,TGI,[42],5.3 µM
same,GI50,[43],1500 nM
same,TGI,[43],3.1 µM
same,GI50,[44],2060 nM
same,TGI,[44],5.04 µM
same,GI50,[45],2.63 µM
same,TGI,[45],5.99 µM
same,GI50,[46],1730 nM
same,TGI,[46],3.28 µM
same,GI50,[47],3.38 µM
same,TGI,[47],10.9 µM
same,GI50,[48],1800 nM
same,TGI,[48],3.44 µM
same,GI50,[49],4010 nM
same,TGI,[49],13.9 µM
COc1ccc([C@@H]2[C@@H](Cl)C(=O)N2c2cc(OC)c(OC)c(OC)c2)cc1C,GI50,[1],64.3 nM
same,TGI,[1],21.6 µM
same,GI50,[2],33.5 nM
same,TGI,[2],0.314 µM
same,GI50,[3],273 nM
same,TGI,[3],> 100 µM
same,GI50,[4],121 nM
same,TGI,[4],30.3 µM
same,GI50,[5],0.0717 µM
same,TGI,[5],1.13 µM
same,GI50,[50],46.5 nM
same,TGI,[50],> 100 µM
same,GI50,[51],38.6 nM
same,TGI,[51],159 nM
same,GI50,[7],40.5 nM
same,TGI,[7],236 nM
same,GI50,[8],65.9 nM
same,TGI,[8],> 100 µM
same,GI50,[9],347 nM
same,TGI,[9],58.4 µM
same,GI50,[10],40.1 nM
same,TGI,[10],11.4 µM
same,GI50,[11],53.5 nM
same,TGI,[11],> 100 µM
same,GI50,[12],27.2 nM
same,TGI,[12],0.0767 µM
same,GI50,[13],53.5 nM
same,TGI,[13],> 100 µM
same,GI50,[14],144 nM
same,TGI,[14],24.9 µM
same,GI50,[52],49 nM
same,TGI,[52],77.4 µM
same,GI50,[15],32.7 nM
same,TGI,[15],11.9 µM
same,GI50,[16],84.9 nM
same,TGI,[16],72.4 µM
same,GI50,[53],45.6 nM
same,TGI,[53],> 100 µM
same,GI50,[17],41.9 nM
same,TGI,[17],17.1 µM
same,GI50,[18],69.2 nM
same,TGI,[18],17 µM
same,GI50,[19],30.2 nM
same,TGI,[19],17.5 µM
same,GI50,[20],17.8 µM
same,TGI,[20],64.8 µM
same,GI50,[21],43.5 nM
same,TGI,[21],> 100 µM
same,GI50,[22],163 nM
same,TGI,[22],42.1 µM
same,GI50,[24],181 nM
same,TGI,[24],> 100 µM
same,GI50,[25],13.2 µM
same,TGI,[25],73.9 µM
same,GI50,[54],85.3 nM
same,TGI,[54],> 100 µM
same,GI50,[26],313 nM
same,TGI,[26],14.4 µM
same,GI50,[27],22.4 nM
same,TGI,[27],71.7 nM
same,GI50,[28],42.6 nM
same,TGI,[28],> 100 µM
same,GI50,[29],24.1 nM
same,TGI,[29],58.1 nM
same,GI50,[30],769 nM
same,TGI,[30],> 100 µM
same,GI50,[31],305 nM
same,TGI,[31],> 100 µM
same,GI50,[32],50.4 nM
same,TGI,[32],77.5 µM
same,GI50,[55],63.3 nM
same,TGI,[55],> 100 µM
same,GI50,[56],64.1 nM
same,TGI,[56],28.3 µM
same,GI50,[57],31.3 nM
same,TGI,[57],20.6 µM
same,GI50,[58],137 nM
same,TGI,[58],25 µM
same,GI50,[33],50.1 nM
same,TGI,[33],39.7 µM
same,GI50,[34],29.3 nM
same,TGI,[34],14.6 µM
same,GI50,[35],49.6 nM
same,TGI,[35],19.6 µM
same,GI50,[36],11 µM
same,TGI,[36],> 100 µM
same,GI50,[37],55.3 nM
same,TGI,[37],1340 nM
same,GI50,[38],84.1 nM
same,TGI,[38],> 100 µM
same,GI50,[39],99.9 nM
same,TGI,[39],21.9 µM
same,GI50,[40],53.5 nM
same,TGI,[40],> 100 µM
same,GI50,[41],35.5 nM
same,TGI,[41],37.9 µM
same,GI50,[42],39.7 nM
same,TGI,[42],54.4 µM
same,GI50,[43],46.2 nM
same,TGI,[43],34.5 µM
same,GI50,[45],10.5 µM
same,TGI,[45],79.9 µM
same,GI50,[46],44 nM
same,TGI,[46],17.5 µM
same,GI50,[47],15.7 µM
same,TGI,[47],97.3 µM
same,GI50,[48],60.7 nM
same,TGI,[48],41.1 µM
same,GI50,[49],172 nM
same,TGI,[49],47.6 µM
